# US5869448A, “Cyclic CS-1 peptidomimetics, compositions and methods of using same” (Cytel Corporation, priority 1995, dated 1999)
# Positions of bridges follow the written chain, without caps; N, C: chain ends. Non-standard residues stand in square brackets, D forms with d. Residues, ends and D or L forms follow the SMILES beside them. *: point of attachment. Pen = CC(C)(S)[C@H](N)C(=O)O; PhAc = O=C(Cc1ccccc1)*
# Target: T1, VLA-4/CS-1 (Homo sapiens, UniProt P05556+P13612)
# T1 construct: inflammatory cells that contain the VLA-4 receptor [Jurkat cells; host or cells: Jurkat (human T lymphoblastic line)
# Test: In vitro inhibition of binding of 51Cr-labeled Jurkat cells to solid phase-bound CS-1 peptide
# Assay type: cell-based
# Conditions: Table 1; normalized IC50, standard peptide of SEQ ID NO:6 = 1
# Protocol: Binding inhibition is measured here as a concentration of peptide that inhibits one-half the binding between a standard number of Jurkat cells and a standard amount of CS-1 peptide bound to the surface of a microtiter plate well. Those concentrations are conveniently expressed as IC50 values, smaller numbers indicating a lower concentration required to inhibit 50 percent binding and therefore greater potency. Further specifics of this assay are provided hereinafter.
# Jurkat cells (ATCC TIB 152), a human T lymphoblastic line, labeled with ^51 chromium were used to assay in vitro binding inhibition provided by various peptides discussed herein.
# The plates were prepared as follows: The 25-mer CS-1 peptide (SEQ ID NO:5) dissolved at 0.5-1 μg/ml in a buffer of 0.1M NaHCO3 at pH 9.5 that also contained 10 μg/ml of bovine serum albumin (BSA) or a conjugate of the CS-1 peptide linked to ovalbumin (CS-1-OVA) dissolved at 1-2.5 μg/ml in the same buffer was used as the substrate. Each well of the microtiter plates was coated with 50 μl of substrate or buffer alone for controls. The wells were permitted to dry out completely and were then rinsed twice with PBS at pH 7.4. Non-specific binding sites of each well were then blocked using 200 μl per well of RPMI/1 percent BSA for two hours at room temperature. Both solid phase-affixed substrates provided similar results.
# Jurkat cells (3-5×10^6 cells) were placed into a 15 ml FALCON™ round-bottom tube with a cap. The tube was centrifuged, and the extra medium was then removed.
# Two hundred microliters of a ^51 Cr labeling solution were added to the centrifuged cells and maintained in contact with the cells for 90-120 minutes in a warm room. This procedure typically provides about 50,000-100,000 cpm/well with about 80-100 percent cell viability. Longer contact times provide a greater amount of labeling but lower cell viability.
# The labeled cells were washed with (i) complete medium, (ii) 1 mM EDTA/PBS and then (iii) RPM1/1 percent BSA free of serum components. The cells were centrifuged after each washing. The cells were finally resuspended in serum-free RPMI/1 percent BSA at a concentration of 1×10^6 viable cells/ml, which provides a concentration that is diluted by one-half in the assay.
# Cyclic inhibitor peptides were prepared as stock solutions at 20 mg/ml in DMSO in 1.5 ml cryogenic screwcap vials, and were stored at -70° C. Using FLOW™ round-bottom or V-bottom microtiter plates, the inhibitor peptides were prepared at twice the assay concentration in RPMI/1 percent BSA at 60 μl/well.
# Four initial dilutions were typically used.
# The ^51 Cr-labeled cells (1×10^6 cells at 60 μl/well) were then admixed with the diluted cyclic peptide solutions. The admixtures were maintained at room temperature (about 22° C.) for 30 minutes.
# One hundred microliters of each inhibitor peptide/cell admixture were transferred to the substrate-coated wells. This was done in triplicate for each dilution. The resulting plates were incubated for 30 minutes at 37° C. and then washed gently three times with RPMI/1 percent BSA at 200 μl/well. Binding was observed microscopically, particularly after the second wash.
# The bound cells were then lysed by the addition of a 0.5 percent solution of sodium dodecylsulfate in water at 100 μl/well. The resulting solutions were then processed for counting and calculation of IC50 values following usual procedures. Appropriate positive and negative controls were used with each plate so that the results of separate assays could be normalized and compared.
# The potency data of Table 1 and Table 2 are so normalized. The absolute IC50 value for the peptide of SEQ ID NO:7 is 0.3 μM.
# T1 sequence (P13612 34-1032): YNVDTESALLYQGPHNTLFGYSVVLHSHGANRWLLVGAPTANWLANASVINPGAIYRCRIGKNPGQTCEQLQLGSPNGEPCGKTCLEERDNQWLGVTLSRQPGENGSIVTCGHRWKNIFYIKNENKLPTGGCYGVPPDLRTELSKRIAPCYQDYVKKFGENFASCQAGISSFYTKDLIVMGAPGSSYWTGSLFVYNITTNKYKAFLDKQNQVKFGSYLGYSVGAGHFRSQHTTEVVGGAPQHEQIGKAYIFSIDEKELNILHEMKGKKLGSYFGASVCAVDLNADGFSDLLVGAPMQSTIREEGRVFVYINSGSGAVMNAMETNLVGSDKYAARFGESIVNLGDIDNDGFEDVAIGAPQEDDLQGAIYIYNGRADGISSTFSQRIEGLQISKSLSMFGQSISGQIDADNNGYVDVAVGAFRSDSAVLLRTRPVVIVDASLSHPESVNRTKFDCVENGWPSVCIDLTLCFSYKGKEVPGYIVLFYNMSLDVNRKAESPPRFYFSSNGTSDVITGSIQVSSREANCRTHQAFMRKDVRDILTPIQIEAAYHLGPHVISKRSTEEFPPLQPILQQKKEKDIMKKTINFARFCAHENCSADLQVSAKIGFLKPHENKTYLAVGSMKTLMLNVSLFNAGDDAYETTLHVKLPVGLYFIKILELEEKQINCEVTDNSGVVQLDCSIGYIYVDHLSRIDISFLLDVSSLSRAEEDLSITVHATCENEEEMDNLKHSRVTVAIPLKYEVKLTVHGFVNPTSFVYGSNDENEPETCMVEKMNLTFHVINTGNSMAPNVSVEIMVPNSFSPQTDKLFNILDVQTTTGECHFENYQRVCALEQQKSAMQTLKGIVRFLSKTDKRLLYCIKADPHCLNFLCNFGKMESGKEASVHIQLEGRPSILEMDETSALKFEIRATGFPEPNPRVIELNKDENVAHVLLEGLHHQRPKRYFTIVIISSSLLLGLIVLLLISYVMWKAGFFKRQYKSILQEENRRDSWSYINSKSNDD
# T1 sequence (P05556 21-798): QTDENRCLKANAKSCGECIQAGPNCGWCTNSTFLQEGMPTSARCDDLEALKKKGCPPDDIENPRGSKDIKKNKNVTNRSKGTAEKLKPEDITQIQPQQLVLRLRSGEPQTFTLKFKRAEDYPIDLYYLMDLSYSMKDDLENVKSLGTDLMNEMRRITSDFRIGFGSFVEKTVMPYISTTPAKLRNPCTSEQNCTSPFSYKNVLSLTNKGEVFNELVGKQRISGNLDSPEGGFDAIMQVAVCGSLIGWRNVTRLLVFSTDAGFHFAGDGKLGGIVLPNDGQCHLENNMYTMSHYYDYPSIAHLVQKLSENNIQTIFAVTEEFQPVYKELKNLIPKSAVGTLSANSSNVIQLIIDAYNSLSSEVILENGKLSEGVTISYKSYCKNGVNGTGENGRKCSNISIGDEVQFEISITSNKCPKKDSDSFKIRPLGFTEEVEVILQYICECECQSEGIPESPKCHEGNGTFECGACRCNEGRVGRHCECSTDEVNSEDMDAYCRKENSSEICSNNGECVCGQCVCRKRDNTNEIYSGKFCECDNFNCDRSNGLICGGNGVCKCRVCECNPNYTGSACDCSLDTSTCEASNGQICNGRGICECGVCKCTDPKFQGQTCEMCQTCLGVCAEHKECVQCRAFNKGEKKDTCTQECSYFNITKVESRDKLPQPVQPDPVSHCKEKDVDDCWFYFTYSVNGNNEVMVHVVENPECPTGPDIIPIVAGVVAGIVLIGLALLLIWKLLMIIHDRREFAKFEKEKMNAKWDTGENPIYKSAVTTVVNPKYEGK
row,Relative Potency,Compound
1,16,O=C(O)C[C@@H]1NC(=O)[C@@H](NC(=O)Cc2ccccc2)CSCCNC(=O)[C@H](Cc2ccccc2)NC1=O [.phi.AcCDF--NHCH2 CH2 --]
2,< 1,CC(=O)N[C@@H](CC(C)C)C(=O)N[C@@H](CC(=O)O)C(=O)N[C@@H](Cc1ccccc1)C(N)=O [AcLDF--NH2] (Ac-Leu-Asp-Phe-NH2)
3,< 1,"CC(=O)N[C@@H](CC(C)C)C(=O)N[C@@H](CC(=O)O)C(=O)N[C@H](C(N)=O)C(C)C [AcLDV--NH2, reference compound] (Ac-Leu-Asp-Val-NH2)"
4,0,CC(C)C[C@H](N)C(=O)N[C@@H](CC(=O)O)C(=O)N[C@@H](Cc1ccccc1)C(N)=O [LDF--NH2] (H-Leu-Asp-Phe-NH2)
5,0,"CC(C)C[C@H](N)C(=O)N[C@@H](CC(=O)O)C(=O)N[C@H](C(N)=O)C(C)C [LDV--NH2, reference compound] (H-Leu-Asp-Val-NH2)"
6,94,CC1(C)SSC[C@@H](C(N)=O)NC(=O)[C@H](Cc2ccccc2)NC(=O)[C@H](CC(=O)O)NC(=O)[C@H]1NC(=O)Cc1ccccc1 [compound 14] (PhAc-[Pen]DFC-NH2; disulfide 1-4)
7,81,CC(C)C[C@@H]1NC(=O)[C@H](Cc2ccccc2)NC(=O)[C@@H](N)CSSC[C@@H](C(N)=O)NC(=O)[C@H]([C@@H](C)O)NC(=O)[C@H](CO)NC(=O)[C@@H]2CCCN2C(=O)[C@H](Cc2ccccc2)NC(=O)[C@H](CC(=O)O)NC1=O [compound 15] (H-CFLDFPSTC-NH2; disulfide 1-9)
8,31,CC(C)C[C@@H]1NC(=O)[C@H](Cc2ccccc2)NC(=O)[C@H](CCC(=O)O)NC(=O)[C@@H]2CCCN2C(=O)[C@@H](N)CSSC[C@@H](C(N)=O)NC(=O)[C@@H]2CCCN2C(=O)[C@H](Cc2ccccc2)NC(=O)[C@H](CC(=O)O)NC1=O [compound 16] (H-CPEFLDFPC-NH2; disulfide 1-9)
9,53,CC(=O)N[C@@H](Cc1ccccc1)C(=O)N[C@H]1CSSC[C@@H](C(N)=O)NC(=O)[C@H](Cc2ccccc2)NC(=O)[C@H](CC(=O)O)NC1=O [compound 17] (Ac-FCDFC-NH2; disulfide 2-5)
10,41,CC(=O)N[C@@H](Cc1ccccc1)C(=O)N[C@@H](CS)C(=O)N[C@@H](CC(=O)O)C(=O)N[C@@H](Cc1ccccc1)C(=O)N[C@@H](CS)C(N)=O [compound 18] (Ac-FCDFC-NH2)
11,6,CC(C)C[C@@H]1NC(=O)[C@H](Cc2ccccc2)NC(=O)[C@H](CCC(=O)O)NC(=O)[C@@H]2CCCN2C(=O)[C@@H](N)CSSC[C@@H](C(N)=O)NC(=O)[C@H](CO)NC(=O)[C@@H]2CCCN2C(=O)[C@H](Cc2ccccc2)NC(=O)[C@H](CC(=O)O)NC1=O [compound 19] (H-CPEFLDFPSC-NH2; disulfide 1-10)
12,19,CC(C)C[C@@H]1NC(=O)[C@H](Cc2ccccc2)NC(=O)[C@H](CCC(=O)O)NC(=O)[C@@H](N)CSSC[C@@H](C(N)=O)NC(=O)[C@@H]2CCCN2C(=O)[C@H](Cc2ccccc2)NC(=O)[C@H](CC(=O)O)NC1=O [compound 20] (H-CEFLDFPC-NH2; disulfide 1-8)
13,19,CC(C)C[C@@H]1NC(=O)[C@H](Cc2ccccc2)NC(=O)[C@@H](N)CSSC[C@@H](C(N)=O)NC(=O)[C@H](C(C)C)NC(=O)[C@H]([C@@H](C)O)NC(=O)[C@H](CO)NC(=O)[C@@H]2CCCN2C(=O)[C@H](Cc2ccccc2)NC(=O)[C@H](CC(=O)O)NC1=O [compound 21] (H-CFLDFPSTVC-NH2; disulfide 1-10)
14,9,CC(C)C[C@@H]1NC(=O)[C@H](Cc2ccccc2)NC(=O)[C@H](CCC(=O)O)NC(=O)[C@@H](N)CSSC[C@@H](C(N)=O)NC(=O)[C@H]([C@@H](C)O)NC(=O)[C@H](CO)NC(=O)[C@@H]2CCCN2C(=O)[C@H](Cc2ccccc2)NC(=O)[C@H](CC(=O)O)NC1=O [compound 22] (H-CEFLDFPSTC-NH2; disulfide 1-10)
15,9,CC(C)C[C@@H]1NC(=O)[C@H](Cc2ccccc2)NC(=O)[C@H](CCC(=O)O)NC(=O)[C@@H]2CCCN2C(=O)CNC(=O)[C@@H](N)CSSC[C@@H](C(N)=O)NC(=O)[C@H](Cc2ccccc2)NC(=O)[C@H](CC(=O)O)NC1=O [compound 23] (H-CGPEFLDFC-NH2; disulfide 1-9)
16,6,CC(C)C[C@@H]1NC(=O)[C@H](Cc2ccccc2)NC(=O)[C@H](CCC(=O)O)NC(=O)[C@@H](N)CSSC[C@@H](C(N)=O)NC(=O)[C@H](CO)NC(=O)[C@@H]2CCCN2C(=O)[C@H](Cc2ccccc2)NC(=O)[C@H](CC(=O)O)NC1=O [compound 24] (H-CEFLDFPSC-NH2; disulfide 1-9)
17,3,NC(=O)[C@@H]1CSSC[C@H](NC(=O)[C@@H](N)Cc2ccccc2)C(=O)N[C@@H](CC(=O)O)C(=O)N[C@@H](Cc2ccccc2)C(=O)N1 [compound 25] (H-FCDFC-NH2; disulfide 2-5)
18,1,CC(C)C[C@@H]1NC(=O)[C@@H](N)CSSC[C@@H](C(N)=O)NC(=O)[C@H](Cc2ccccc2)NC(=O)[C@H](CC(=O)O)NC1=O [compound 28] (H-CLDFC-NH2; disulfide 1-5)
19,1,CC(=O)N[C@@H](Cc1ccccc1)C(=O)N[C@H]1CSSC[C@@H](C(=O)N2CCC[C@H]2C(N)=O)NC(=O)[C@H](CC(=O)O)NC1=O [compound 29] (Ac-FCDCP-NH2; disulfide 2-4)

row,Compound,Relative Potency
1,NC(=O)[C@@H]1CSSC[C@H](NC(=O)Cc2ccccc2)C(=O)N[C@@H](CC(=O)O)C(=O)N[C@@H](Cc2ccccc2)C(=O)N1 [compound 7] (PhAc-CDFC-NH2; disulfide 1-4),954

# Same assay, conditions: Table 2; normalized, relative to standard peptide of SEQ ID NO:6
row,Relative Potency,Compound
1,0,CC(=O)N[C@H]1CSSC[C@@H](C(=O)N2CCC[C@@H]2C(N)=O)NC(=O)[C@H](CC(=O)O)NC(=O)[C@H](CC(C)C)NC1=O (Ac-CLDC[dP]-NH2; disulfide 1-4)
2,.91,CC(=O)N[C@H]1CSSC[C@@H](C(N)=O)NC(=O)[C@H](Cc2ccccc2)NC(=O)[C@H](CC(=O)O)NC(=O)[C@H](CC(C)C)NC1=O (Ac-CLDFC-NH2; disulfide 1-5)
3,0,CC(C)C[C@@H]1NC(=O)[C@H](Cc2ccccc2)NC(=O)[C@@H](N)CSSC[C@@H](C(=O)N2CCC[C@H]2C(N)=O)NC(=O)[C@H](CC(=O)O)NC1=O (H-CFLDCP-NH2; disulfide 1-5)
4,56.3,CC(C)C[C@@H]1NC(=O)[C@H](Cc2ccccc2)NC(=O)[C@H](CCC(=O)O)NC(=O)[C@@H]2CCCN2C(=O)[C@@H](N)CSSC[C@@H](C(N)=O)NC(=O)[C@H](Cc2ccccc2)NC(=O)[C@H](CC(=O)O)NC1=O (H-CPEFLDFC-NH2; disulfide 1-8)
5,16.1,O=C(O)C[C@@H]1NC(=O)[C@@H](NC(=O)Cc2ccccc2)CSCCNC(=O)[C@H](Cc2ccccc2)NC1=O [.phi.AcCDF--NHCH2 CH2 --]
6,81.4,"CC(C)C[C@@H]1NC(=O)[C@H](Cc2ccccc2)NC(=O)[C@@H](N)CSSC[C@@H](C(N)=O)NC(=O)[C@H]([C@@H](C)O)NC(=O)[C@H](CO)NC(=O)[C@@H]2CCCN2C(=O)[C@H](Cc2ccccc2)NC(=O)[C@H](CC(=O)O)NC1=O [SEQ ID NO:15, CFLDFPSTC--NH2] (H-CFLDFPSTC-NH2; disulfide 1-9)"

# Same assay, conditions: XLDFp = 1
row,CS-1 binding inhibition potencies relative to each other,Compound
1,~1,"CC(C)C[C@H](NC(=O)Cc1ccccc1)C(=O)N[C@@H](CC(=O)O)C(=O)N[C@@H](Cc1ccccc1)C(=O)N1CCC[C@@H]1C(N)=O [XLDFp, .phi.Ac-LeuAspPhe-D-Pro-NH2, reference compound] (PhAc-LDF[dP]-NH2)"

# Same assay, conditions: times more potent than standard 10-mer
row,inhibition potency relative to the Standard 10-mer of SEQ ID NO:6,Compound
1,about 1,"CC(=O)N[C@@H](CC(C)C)C(=O)N[C@@H](CC(=O)O)C(=O)N[C@H](C(N)=O)C(C)C [AcLDV--NH2, reference compound] (Ac-Leu-Asp-Val-NH2)"
2,zero,"CC(C)C[C@H](N)C(=O)N[C@@H](CC(=O)O)C(=O)N[C@H](C(N)=O)C(C)C [LDV--NH2, reference compound] (H-Leu-Asp-Val-NH2)"
3,about 253,"CC(C)C[C@@H]1NC(=O)[C@H](Cc2ccccc2)NC(=O)[C@@H](N)CSSC[C@@H](C(N)=O)NC(=O)[C@@H]2CCCN2C(=O)[C@H](Cc2ccccc2)NC(=O)[C@H](CC(=O)O)NC1=O [SEQ ID NO:10, CFLDFPC--NH2] (H-CFLDFPC-NH2; disulfide 1-7)"
4,~313,"CC(C)C[C@H](NC(=O)Cc1ccccc1)C(=O)N[C@@H](CC(=O)O)C(=O)N[C@@H](Cc1ccccc1)C(=O)N1CCC[C@@H]1C(N)=O [XLDFp, .phi.Ac-LeuAspPhe-D-Pro-NH2, reference compound] (PhAc-LDF[dP]-NH2)"
